Data on 16 molecules can be found in patent publication US20240238423A9, “TETRAHYDROISOQUINOLINE HETEROBIFUNCTIONAL BCL-XL DEGRADERS” (Treeline Biosciences, Inc., priority 2022, published 2024).

The assay concerns the target T1, Human BCL-XL protein (N-terminal HiBiT tagged BCL-XL in HT1080 cells) (Homo sapiens, UniProt Q07817).
T1 construct: expressed in transfected cells; host or cells: HT-1080 (ATCC CCL-121), stably transduced with lentivirus pLV-UBC-N-HiBiT-BCL-XL-PGK-puro and selected with puromycin
The experiment in a line: HiBiT based degradation assay. The assay is classed as cell-based. The note with it: HT1080 cells expressing HiBiT-BCL-XL; for Ymin (24 h) / Ymin (6 h): BCL-XL degradation normalized with DMSO control; for DC50: BCL-XL degradation. In a few lines:
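This HiBiT degradation assay measured loss of BCL-XL in HT1080 cells that stably express an N-terminal HiBiT-BCL-XL fusion delivered by lentivirus. Cells were added to compound-spotted 384-well plates, and luminescence was read on a PHERAstar FSX reader. Signal was expressed relative to DMSO controls, curves were fitted by four-parameter logistic regression, and for hook-shaped curves the Ymin point served as the bottom plateau when calculating EC50.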

Where two headings read alike, the source gives them in different places.

T1 sequence (Q07817 whole entry): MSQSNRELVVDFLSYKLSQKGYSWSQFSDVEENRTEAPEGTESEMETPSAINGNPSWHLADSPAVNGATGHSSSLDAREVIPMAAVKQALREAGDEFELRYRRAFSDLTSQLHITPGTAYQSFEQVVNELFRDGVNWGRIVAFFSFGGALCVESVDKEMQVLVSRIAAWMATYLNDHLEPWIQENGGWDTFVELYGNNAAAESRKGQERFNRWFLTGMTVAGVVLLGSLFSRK

On to `Cc1c(OCC[C@@H]2CCN(CC(=O)Nc3cccc4c(C5CCC(=O)NC5=O)nn(C)c34)C2)cccc1-c1ccc(N2CCc3cccc(C(=O)Nc4nc5ccccc5s4)c3C2)nc1C(=O)O` (stereo partly drawn) [Compound 231a, 6-[8-(1,3-benzothiazol-2-ylcarbamoyl)-3,4-dihydro-1H-isoquinolin-2-yl]-3-[3-[2-[(3S)-1-[2-[[3-(2,6-dioxo-3-piperidyl)-1-methyl-indazol-7-yl]amino]-2-oxo-ethyl]pyrrolidin-3-yl]ethoxy]-2-methyl-phenyl]pyridine-2-carboxylic acid], for which the “Ymin (24 h)” value (24 h) is recorded as “B (50% ≤ Ymin < 70%)”. The DC50 (24 h, read-out: EC50 (24 h)) is less than 100 nM.
Taken in the same sequence, the figures for `Cn1nc(C2CCC(=O)NC2=O)c2ccc(N3CCN(CCCC[C@H]4CC[C@H](Oc5cccc(-c6ccc(N7CCc8cccc(C(=O)Nc9nc%10ccccc%10s9)c8C7)nc6C(=O)O)c5)CC4)CC3)cc21` (stereo partly shown) [Compound 329a, 6-(8-(benzo[d]thiazol-2-ylcarbamoyl)-3,4-dihydroisoquinolin-2(1H)-yl)-3-(3-(((1s,4r)-4-(4-(4-(3-(2,6-dioxopiperidin-3-yl)-1-methyl-1H-indazol-6-yl)piperazin-1-yl)butyl)cyclohexyl)oxy)phenyl)picolinic acid] were “A (Ymin < 50%)” and less than 100 nM.
Regarding `Cc1c(-c2ccc(N3CCc4cccc(C(=O)Nc5nc6ccccc6s5)c4C3)nc2C(=O)NCCCCCC(=O)Nc2cccc3c(C4CCC(=O)NC4=O)nn(C)c23)cnn1CC12CC3CC(CC(C3)C1)C2` (stereo not shown) [Compound 108, 2-(5-(1-(((3r,5r,7r)-adamantan-1-yl)methyl)-5-methyl-1H-pyrazol-4-yl)-6-((6-((3-(2,6-dioxopiperidin-3-yl)-1-methyl-1H-indazol-7-yl)amino)-6-oxohexyl)carbamoyl)pyridin-2-yl)-N-(benzo[d]thiazol-2-yl)-1,2,3,4-tetrahydroisoquinoline-8-carboxamide], the “Ymin (6 h)” value (6 h) is listed as “B (50% ≤ Ymin < 70%)”. Besides, under “6 h, read-out: EC50 (6 h)”, the DC50 was less than 100 nM.
Consider `Cc1cc(O[C@H]2CC[C@H](CCCN3CCN(c4ccc5c(C6CCC(=O)NC6=O)nn(C)c5c4)CC3)CC2)ccc1-c1ccc(N2CCc3cccc(C(=O)Nc4nc5ccccc5s4)c3C2)nc1C(=O)O` (stereo partly shown) [Compound 254a, 6-(8-(benzo[d]thiazol-2-ylcarbamoyl)-3,4-dihydroisoquinolin-2(1H)-yl)-3-(4-(((1s,4r)-4-(3-(4-(3-(2,6-dioxopiperidin-3-yl)-1-methyl-1H-indazol-6-yl)piperazin-1-yl)propyl)cyclohexyl)oxy)-2-methylphenyl)picolinic acid], for which the “Ymin (24 h)” value (24 h) is “A (Ymin < 50%)”. Moreover, the DC50 (24 h, read-out: EC50 (24 h)) was less than 100 nM.
For `Cc1c(-c2ccc(N3CCc4cccc(C(=O)Nc5nc6ccccc6s5)c4C3)nc2C(=O)NCC(=O)Nc2ccc3c(C4CCC(=O)NC4=O)nn(C)c3c2)cnn1CC12CC3CC(CC(C3)C1)C2` [Compound 115, 2-(5-(1-((1R,3S)-adamantan-1-ylmethyl)-5-methyl-1H-pyrazol-4-yl)-6-((2-((3-(2,6-dioxopiperidin-3-yl)-1-methyl-1H-indazol-6-yl)amino)-2-oxoethyl)carbamoyl)pyridin-2-yl)-N-(benzo[d]thiazol-2-yl)-1,2,3,4-tetrahydroisoquinoline-8-carboxamide], for the setting “6 h”, the “Ymin (6 h)” value is recorded as “B (50% ≤ Ymin < 70%)”. Moreover, the DC50 (6 h, read-out: EC50 (6 h)) is less than 100 nM.
Regarding `Cc1c(O[C@H]2CC[C@H](CC[C@H](C)N3CCN(c4ccc5c(C6CCC(=O)NC6=O)nn(C)c5c4)CC3)CC2)cccc1-c1ccc(N2CCc3cccc(C(=O)Nc4nc5ccccc5s4)c3C2)nc1C(=O)O` (single isomer, unassigned) [Compound 281a], where the note is “24 h”, the “Ymin (24 h)” value is on record as “A (Ymin < 50%)”. For the same molecule, the DC50 (24 h, read-out: EC50 (24 h)) was less than 100 nM.
The corresponding values for `Cc1c(OCCCC2CCN(CC(=O)Nc3ccc4c(N5CCC(=O)NC5=O)nn(C)c4c3)CC2)cccc1-c1ccc(N2CCc3cccc(C(=O)Nc4nc5ccccc5s4)c3C2)nc1C(=O)O` [Compound 317, 6-(8-(benzo[d]thiazol-2-ylcarbamoyl)-3,4-dihydroisoquinolin-2(1H)-yl)-3-(3-(3-(1-(2-((3-(2,4-dioxotetrahydropyrimidin-1(2H)-yl)-1-methyl-1H-indazol-6-yl)amino)-2-oxoethyl)piperidin-4-yl)propoxy)-2-methylphenyl)picolinic acid] are “B (50% ≤ Ymin < 70%)” and less than 100 nM.
Taken in the same sequence, the figures for `Cc1c(O[C@H]2CC[C@H](CC(F)(F)CN3CCN(c4ccc5c(C6CCC(=O)NC6=O)nn(C)c5c4)CC3)CC2)cccc1-c1ccc(N2CCc3cccc(C(=O)Nc4nc5ccccc5s4)c3C2)nc1C(=O)O` (stereo partly shown) [Compound 212a, 6-(8-(benzo[d]thiazol-2-ylcarbamoyl)-3,4-dihydroisoquinolin-2(1H)-yl)-3-(3-(((1r,4r)-4-(3-(4-(3-(2,6-dioxopiperidin-3-yl)-1-methyl-1H-indazol-6-yl)piperazin-1-yl)-2,2-difluoropropyl)cyclohexyl)oxy)-2-methylphenyl)picolinic acid] were “B (50% ≤ Ymin < 70%)” and less than 100 nM.
`Cc1c(-c2ccc(N3CCc4cccc(C(=O)Nc5nc6ccccc6s5)c4C3)nc2C(=O)NCCCCCCCCCC(=O)Nc2cccc3c(C4CCC(=O)NC4=O)nn(C)c23)cnn1CC12CC3CC(CC(C3)C1)C2` [Compound 109, 2-(5-(1-((3R, 5R, 7R)-adamantan-1-ylmethyl)-5-methyl-1H-pyrazol-4-yl)-6-((10-((3-(2,6-dioxopiperidin-3-yl)-1-methyl-1H-indazol-7-yl)amino)-10-oxodecyl)carbamoyl)pyridin-2-yl)-N-(benzo[d]thiazol-2-yl)-1,2,3,4-tetrahydroisoquinoline-8-carboxamide]: under “6 h”, the “Ymin (6 h)” value was “B (50% ≤ Ymin < 70%)”. Moreover, the DC50 (6 h, read-out: EC50 (6 h)) is less than 100 nM.
For `Cc1c(OCCC[C@H]2CCN(CC(=O)Nc3ccc4c(C5CCC(=O)NC5=O)nn(C)c4c3)CC2(F)F)cccc1-c1ccc(N2CCc3cccc(C(=O)Nc4nc5ccccc5s4)c3C2)nc1C(=O)O` (stereo partly shown) [Compound 193b], the “Ymin (24 h)” value (24 h) is recorded as “B (50% ≤ Ymin < 70%)”. The DC50 (24 h, read-out: EC50 (24 h)) was in the range of 100 to 1000 nM.
Turning to `Cc1c(OCCCC[C@@H]2CCCN(CC(=O)Nc3ccc4c(C5CCC(=O)NC5=O)nn(C)c4c3)C2)cccc1-c1ccc(N2CCc3cccc(C(=O)Nc4nc5ccccc5s4)c3C2)nc1C(=O)O` (stereo partly drawn) [Compound 202b, 6-[8-(1,3-benzothiazol-2-ylcarbamoyl)-3,4-dihydro-1H-isoquinolin-2-yl]-3-[3-[4-[(3R)-1-[2-[[3-(2,6-dioxo-3-piperidyl)-1-methyl-indazol-6-yl]amino]-2-oxo-ethyl]-3-piperidyl]butoxy]-2-methyl-phenyl]pyridine-2-carboxylic acid], for the setting “24 h”, the “Ymin (24 h)” value was “A (Ymin < 50%)”. Moreover, the DC50 (24 h, read-out: EC50 (24 h)) is less than 100 nM.
For `Cc1cc(OCC[C@H](C)C2CCN(CC(=O)Nc3ccc4c(C5CCC(=O)NC5=O)nn(C)c4c3)CC2)ccc1-c1ccc(N2CCc3cccc(C(=O)Nc4nc5ccccc5s4)c3C2)nc1C(=O)O` (single isomer, unassigned) [Compound 266b], where the note is “24 h”, the “Ymin (24 h)” value is reported as “A (Ymin < 50%)”. In addition, the DC50 (24 h, read-out: EC50 (24 h)) is less than 100 nM.
The corresponding values for `Cc1c(O[C@H]2CC[C@H](CCCC3CCN(c4ccc5c(C6CCC(=O)NC6=O)nn(C)c5c4)CC3)CC2)cccc1-c1ccc(N2CCc3cccc(C(=O)Nc4nc5ccccc5s4)c3C2)nc1C(=O)O` (stereo partly shown) [Compound 311b, 6-(8-(benzo[d]thiazol-2-ylcarbamoyl)-3,4-dihydroisoquinolin-2(1H)-yl)-3-(3-(((1s,4r)-4-(3-(1-(3-(2,6-dioxopiperidin-3-yl)-1-methyl-1H-indazol-6-yl)piperidin-4-yl)propyl)cyclohexyl)oxy)-2-methylphenyl)picolinic acid] are “B (50% ≤ Ymin < 70%)” and less than 100 nM.
As for `Cc1c(CCCCN2CCN(CC(=O)Nc3ccc4c(C5CCC(=O)NC5=O)nn(C)c4c3)CC2)cccc1-c1ccc(N2CCc3cccc(C(=O)Nc4nc5ccccc5s4)c3C2)nc1C(=O)O` (stereo not shown) [Compound 130, 6-[8-(1,3-Benzothiazol-2-ylcarbamoyl)-3,4-dihydro-1H-isoquinolin-2-yl]-3-[3-[4-[4-[2-[[3-(2,6-dioxo-3-piperidyl)-1-methyl-indazol-6-yl]amino]-2-oxo-ethyl]piperazin-1-yl]butyl]-2-methyl-phenyl]pyridine-2-carboxylic acid], the “Ymin (6 h)” value (6 h) is given as “A (Ymin < 50%)”. The “Ymin (24 h)” value (24 h) is reported as “A (Ymin < 50%)”. Further, the DC50 by setting is: (6 h, read-out: EC50 (6 h)) less than 100 nM; (24 h, read-out: EC50 (24 h)) less than 100 nM.
As to `Cc1c(O[C@H]2CC[C@H](CC(F)(F)C(=O)N3CCN(c4ccc5c(C6CCC(=O)NC6=O)nn(C)c5c4)CC3)CC2)cccc1-c1ccc(N2CCc3cccc(C(=O)Nc4nc5ccccc5s4)c3C2)nc1C(=O)O` (stereo partly shown) [Compound 239a, 6-(8-(benzo[d]thiazol-2-ylcarbamoyl)-3,4-dihydroisoquinolin-2(1H)-yl)-3-(3-(((1r,4r)-4-(3-(4-(3-(2,6-dioxopiperidin-3-yl)-1-methyl-1H-indazol-6-yl)piperazin-1-yl)-2,2-difluoro-3-oxopropyl)cyclohexyl)oxy)-2-methylphenyl)picolinic acid], under “24 h”, the “Ymin (24 h)” value is “B (50% ≤ Ymin < 70%)”. The DC50 (24 h, read-out: EC50 (24 h)) was less than 100 nM.
Regarding `Cc1c(O[C@H]2CC[C@H](CCCN3CCN(c4cccc5c(C6CCC(=O)NC6=O)nn(C)c45)[C@@H](C)C3)CC2)cccc1-c1ccc(N2CCc3cccc(C(=O)Nc4nc5ccccc5s4)c3C2)nc1C(=O)O` (stereo partly drawn) [Compound 274b, 6-(8-(benzo[d]thiazol-2-ylcarbamoyl)-3,4-dihydroisoquinolin-2(1H)-yl)-3-(3-(((1R,4r)-4-(3-((3S)-4-(3-(2,6-dioxopiperidin-3-yl)-1-methyl-1H-indazol-7-yl)-3-methylpiperazin-1-yl)propyl)cyclohexyl)oxy)-2-methylphenyl)picolinic acid], the “Ymin (24 h)” value (24 h) is on record as “A (Ymin < 50%)”. Further, the DC50 (24 h, read-out: EC50 (24 h)) is less than 100 nM.
